Key:
[1] = tested on: female Aedes aegypti adults; assay: Arm-in-cage cloth-patch in vivo assay (topical repellency); settings: for Minimum Effective Dose (MED): Mean ± SEM, lowest dosage with five or fewer bites through repellent-treated cloth in 1-minute exposure, at least three volunteers; for topical repellency (in words): initial screening dose of 0.187 mg/cm^2
Excerpt: Arm-in-Cage Test Cloth-Patch in vivo Assay Pyrethroid-susceptible yellow fever mosquitoes Ae. aegypti (Orlando strain) were reared in the United States Department of Agriculture Mosquito and Fly Research Unit in Gainesville, FL under standard protocols. Three to seven-day-old, starved female mosquitoes were collected using a “draw box” (Posey, K. and Schreck, C. E, 1981, “An airflow apparatus for selecting female mosquitoes for use in repellent and attraction studies” Mosquito News 41: 566-568; US. Department of Agriculture, 1977, Repellent activity of compounds submitted by Walter Reed Army Institute of Research. Part 1. Protection time and minimum effective dosage against Aedes aegypti mosquitoes. Tech. Bull. No. 1549) and were placed in cages at an approximate density 200 mosquitoes/cage. Repellency was determined according to a standard protocol (Bernier, U. R., et al, 2022. “Evaluation and application of repellent-treated uniform/clothing and textiles against vector mosquitoes,” In Advances in Arthropod Repellents (pp. 69-94). Academic Press) and reported as the minimum effective dosage (MED). […] A nylon leg stocking was placed over the arm to prevent direct contact of the repellent-treated cloth patch with the skin. […]. Cloth was treated by placing a rolled bandage (50 cm^2) into each vial containing 1 mL of solution and allowing the patch to absorb the solution completely. The cloth was taped over a 4 by 9-cm opening cut into a vinyl plastic sheet that was draped around the volunteers' arms and taped in place. The cloth was air-dried approximately 15 min before conducting each test. The work reported here is an average of the MED for at least three volunteers. Each volunteer covered his or her arm with a nylon stocking to avoid contact between the skin and the treated cloth and wore a rubber glove to prevent mosquito bites on the hand.
. The minimum effective dose (MED) was determined for each repellent and subject, defined as the lowest concentration that prevents biting). MEDs from each subject were pooled and reported as the average among all replicates/subjects with SEM. A minimum of 3 replicates were performed on at least three human subjects. Written informed consent was obtained for all human subjects used in this study in accordance with IRB protocol #20193320, as approved by the WCG™ IRB.
Statistical Analyses: Student's T-test was used to compare the means between tested compound and DEET and Icaridin in the arm-in-cage in vivo assay and neurophysiological study.

[2] = tested on: female Aedes aegypti adults; assay: High-throughput in vitro screening assay, spatial repellency; format: in vivo; settings: for RD50 (30 min), half-repellent dose / RD50 (60 min), half-repellent dose: dose per filter paper surface area, 95% CI; for spatial repellency (in words): highest-tested dose of 100 μg/cm^2
Excerpt: A high-throughput screening method for evaluating spatial repellency and vapor toxicity, described by Jiang S., et al. (2019, “High-Throughput Screening Method for Evaluating Spatial Repellency and Vapour Toxicity to Mosquitoes,” Med. Vet. Entomol. 33: 388-396), was used for this study. As shown in FIG. 2 of Jiang S., et al., assay tubes were constructed by covering 12.5 cm glass tubes on one side with netting secured by a rubber band. The tubes were used in horizontal orientation. Adult mosquitos 2-7 days old were anesthetized on ice for approximately 5 minutes and 16 females were transferred to each tube. The other end of the tube was then closed with netting and a rubber band.
The conical ends of 50 mL centrifuge tubes (Eppendorf, Enfield, Connecticut, USA) were cut at approximately the 10 mL mark to create the end caps for the assay tubes. […] For repellency tests, filter papers for the “untreated” side of the assay tube received pure acetone, whereas filter papers for the “treated” side received acetone solution containing a dissolved compound of interest. For knockdown tests, both filter papers were treated with acetone solution containing one or more compounds of interest. Acetone on both filter papers served as negative controls.
For repellency assays, filter papers were given 10 minutes of evaporation time before being placed into the end caps with forceps (Jiang S., et al. 2019, Supra). For knockdown assays, filter papers were given 5 minutes of evaporation time before being placed into the end caps. […] Assay tubes were capped such that the cap securely overlapped the glass but approximately 5 mm of space was left between the netting and the filter paper so that the mosquitos could not contact the filter paper.
Assay tubes were placed on a white polystyrene platform with wooden sticks glued flatly across it to prevent the tubes from rolling. A straight black line was drawn down the center of the platform and assay tubes were centered on the line at the beginning of the tests. In repellency assays, data were collected at 15, 30, and 60 minutes after the end caps were placed on the assay tubes. Assay tubes were not disturbed for the entire 60 minutes. At each time point, the number of mosquitos that remained on the treated side was visually assessed and recorded. The treated side was alternated with each set of tests. For repellency tests, DEET at a dose of 100 μg/cm^2 served as the positive control.
For the high-throughput in vitro screening assays, analyses were conducted with R version 4.2.2 statistical software (R Core Team, 2022, “R: a language and environment for statistical computing. R foundation for statistical computing,” Vienna, Austria). Concentrations were calculated in terms of filter paper surface area (μg/cm^2) for repellency assays and in terms of assay tube volume (μg/cm^3) for knockdown assays.
Half-repellent (RD50), half-knockdown (KD50), and half-lethal (LD50) doses were calculated from dose-response curves (DRCs) obtained by four-parameter log-logistic equation models generated using the drc package (Dose Response Curve Analyses Software; Ritz C. et al., 2015, “Dose-response analysis using R,” PLOS ONE 10: e0146021). For repellency test analysis, the upper and lower asymptotes for the proportion of mosquitos remaining on the treated side were fixed at 0.5 and 0, respectively. For KD and mortality test analysis, the upper and lower asymptotes for the proportion of mosquitos knocked down or killed were fixed at 1.0 and 0, respectively. To determine whether RD50, KD50, or LD50 values differed across compounds at each timepoint, a joint model assuming different values for each compound and a null model that assumed a single value for all compounds were compared with a likelihood ratio test.

| SMILES | Minimum Effective Dose (MED) [1] [mg/cm^2] | topical repellency (in words) [1] | RD50 (30 min), half-repellent dose [2] [μg/cm^2] | RD50 (60 min), half-repellent dose [2] [μg/cm^2] | spatial repellency (in words) [2] | 30-minute RD50 compared with that of DEET ([2]; 30 minutes, α = 0.05) | MED, times lower than the initial screening dose ([1]; relative to initial screening dose of 0.187 mg/cm^2) [times] |
| --- | --- | --- | --- | --- | --- | --- | --- |
| COC(=O)c1ccc(O)cc1 [M4HB, methyl 4-hyhroxylbenzoate] | >0.187 | did not show any topical repellencies | >100 | >100 | did not show spatial repellencies |  |  |
| COC(=O)c1ccc(C)cc1 [M4MB, methyl 4-methylbenzoate] | >0.187 | did not show any topical repellencies | >100 | >100 | did not show spatial repellencies |  |  |
| COC(=O)c1ccc(OC)cc1 [M4MOB, methyl 4-methoxybenzoate] | >0.187 | did not show any topical repellencies | >100 | >100 | did not show spatial repellencies |  |  |
| COC(=O)c1ccc(C(F)(F)F)cc1 [M4tFMB, methyl 4-(trifluoromethyl)benzoate] | >0.187 | did not show any topical repellencies | >100 | >100 | did not show spatial repellencies |  |  |
| COC(=O)c1ccccc1N [MA, methyl anthranilate] | 0.027 |  | 11.84 |  |  | significantly lower than that of DEET |  |
| COC(=O)c1ccccc1NC(C)=O [MAcA, methyl N-acetylanthranilate] | 0.101 | demonstrated repellency at doses lower than 0.187 mg/cm^2 on at least one test subject | >100 | >100 | did not show spatial repellencies |  |  |
| COC(=O)c1ccccc1 [MB, Methyl benzoate] | >0.187 | did not show any topical repellencies | >100 | >100 | did not show spatial repellencies |  |  |
| O=C(Oc1ccccc1)c1ccccc1 [PhB, phenyl benzoate] | >0.187 | did not show any topical repellencies | >100 | >100 | did not show spatial repellencies |  |  |
| O=C(OCCc1ccccc1)c1ccccc1 [PhEB, phenethyl benzoate] | >0.187 | did not show any topical repellencies | >100 | >100 | did not show spatial repellencies |  |  |
| C=COC(=O)c1ccccc1 [VB, vinyl benzoate] | >0.187 | did not show any topical repellencies | >100 | >100 | did not show spatial repellencies |  |  |
| CC(C)OC(=O)c1ccccc1 [iPrB, iso-propyl benzoate] | >0.187 | did not show any topical repellencies | >100 | >100 | did not show spatial repellencies |  |  |
| CCCCOC(=O)c1ccc(O)cc1 [nB4HB, n-butyl 4-hydroxybenzoate] | >0.187 | did not show any topical repellencies | >100 | >100 | did not show spatial repellencies |  |  |
| CCCCOC(=O)c1ccccc1NC=O [nBFA, n-Butyl N-formylanthranilate] | 0.0075 |  | >100 | >100 | did not show any spatial repellencies |  | 25 |
| CCCOC(=O)c1ccc(O)cc1 [nPr4HB, n-propyl 4-hydroxylbenzoate] | >0.187 | did not show any topical repellencies | >100 | >100 | did not show spatial repellencies |  |  |
| CCCOC(=O)c1ccccc1 [nPrB, n-propyl benzoate] | 0.250 | demonstrated repellency at doses lower than 0.187 mg/cm^2 on at least one test subject | >100 | >100 | did not show spatial repellencies |  |  |

Source: patent US20240292836A1, “AGENTS FOR REPELLING, KNOCKING DOWN, AND/OR KILLING BLOOD-SUCKING ARTHROPODS AND USES THEREOF” (The United States of America, as represented by the …, priority 2023, published 2024)
